Test results published in US8664405B2, “Sulfonic acid salt compound of 4-carbamoyl-5-hydroxy-imidazole derivative” (Fujifilm Corporation, priority 2007, dated 2014).

Tests used:
[1] = Storage stability (general statements); format: physicochemical; settings: solid; no test conditions given
[2] = Evaluation of the storage stability in an aqueous solution (UV-Vis spectra); format: physicochemical; settings: dilute aqueous solution, room temperature, after 60 days
Protocol: (Evaluation 2) Evaluation of the Storage Stability in an Aqueous Solution
SM-108 obtained in Example 1 and hydrochloric acid salt of SM-108 obtained in Example 3 were dissolved into water to dilute aqueous solutions. UV-Vis spectra of those solutions were recorded just after making solutions and after leaving at room temperature for 60 days.

[3] = clinical trial by Sumitomo Pharmaceuticals in 1980s; cited from earlier work
[4] = Evaluation of the storage stability in crystalline state by visual observation; format: physicochemical; settings: autoclave at 120° C. under a saturated vapor of water for 30 minutes
Protocol: (Evaluation 1) Evaluation of the Storage Stability in Crystalline State by Visual Observation
SM-108 [2] obtained in Example 1 and benzensulfonic acid salt of SM-108 [5] obtained in Example 2 were placed in an autoclave at 120° C. under a saturated vapor of water for 30 minutes.

## NC(=O)c1nc[nH]c1O [SM-108, 4-Carbamoyl-5-hydroxyimidazole]
[1]
  storage stability: poor storage stability
[2]
  change of UV-Vis absorption spectrum of aqueous solution: a broad absorption appeared in the visible-light region
[3]
  clinical effect against MDS and CML: excellent effects
[4]
  colour of the crystalline substance after treatment (visual observation): turned indigo-blue

## Cl.NC(=O)c1nc[nH]c1O [hydrochloric acid salt of SM-108]
[2]
  change of UV-Vis absorption spectrum of aqueous solution: did not change at all
  colour of aqueous solution: remained colorless

## NC(=O)c1nc[nH]c1O.O=S(=O)(O)c1ccccc1 [benzensulfonic acid salt of SM-108 [5], benzenesulfonic acid salt of SM-108]
[4]
  colour of the crystalline substance after treatment (visual observation): remained colorless
